From patent US11008572B2, “Methods and compositions for modulating splicing” (SKYHAWK THERAPEUTICS, INC., priority 2017, dated 2021) come the findings set out here.

Bounds are passed on as bounds.

By IC50 is commonly meant the midpoint of a concentration-inhibition curve. In general, EC50 refers to the concentration needed to bring the measured effect to its halfway point.

The subject of the first experiment is A-673 cells. In words: Cell viability, crystal violet staining. Format: cell-based. The following applies: Homo sapiens, A673, cell viability, read-out: A-673 IC50 (nM) Cell viability. How it is done:
To measure cell viability, cells were plated in 96-well plastic tissue culture plates at a density of 5×10^3 cells/well. Twenty-four hours after plating, cells were treated with various SMSMs. After 72 hours, the cell culture media were removed and plates were stained with […] of a solution containing 0.5% crystal violet and 25% methanol, rinsed with deionized water, dried overnight, and resuspended in […] citrate buffer (0.1 M sodium citrate in 50% ethanol) to assess plating efficiency. Intensity of crystal violet staining, assessed at 570 nm and quantified using a Vmax Kinetic Microplate Reader and Softmax software (Molecular Devices Corp., Menlo Park, Calif.), were directly proportional to cell number. Data were normalized to vehicle-treated cells and were presented as the mean±SE from representative experiments. SMSMs that are effective were determined for various cells lines.
A-673 cell viability […], splicing (IC50) and brain AUC/Plasma AUC of SMSMs were determined. As shown in the tables below SMSMs had high CNS exposure.
Consider `Oc1cc(-c2cn[nH]c2)ccc1-c1ccc(N2CCC23CCNCC3)nn1` [compound 132, 2-(6-(1,7-diazaspiro[3.5]nonan-1-yl)pyridazin-3-yl)-5-(1H-pyrazol-4-yl)phenol], for which the IC50 was above 1000 nM.
With `CN(c1ccc(-c2ccc(-c3cn[nH]c3)cc2O)nn1)[C@@H]1C[C@]2(C)CC[C@](C)(C1)N2` [compound 150, 2-(6-(((1R,3r,5S)-1,5-dimethyl-8-azabicyclo[3.2.1]octan-3-yl)(methyl)amino)pyridazin-3-yl)-5-(1H-pyrazol-4-yl)phenol], the IC50 is above 1000 nM.
The same measure, in the same setting: next, `CN(c1ccc(-c2ccc(-c3cn[nH]c3)cc2O)nn1)[C@H]1C[C@]2(C)COC[C@](C)(C1)N2` [compound 156, 2-(6-(((1R,5S,7r)-1,5-dimethyl-3-oxa-9-azabicyclo[3.3.1]nonan-7-yl)(methyl)amino)pyridazin-3-yl)-5-(1H-pyrazol-4-yl)phenol]: 10 to 100 nM; `CN(c1ccc(-c2ccc(-c3cn[nH]c3)cc2O)nn1)[C@@H]1C[C@]2(C)COC[C@](C)(C1)N2` [compound 157, 2-(6-(((1R,5S,7s)-1,5-dimethyl-3-oxa-9-azabicyclo[3.3.1]nonan-7-yl)(methyl)amino)pyridazin-3-yl)-5-(1H-pyrazol-4-yl)phenol]: above 1000 nM.
Regarding `COc1ccc2cc(-c3ccc(N(C)[C@@H]4C[C@H]5CC[C@@H](C4)N5)nn3)c(O)cc2c1` [compound 163, 3-(6-(((1R,3s,5S)-8-azabicyclo[3.2.1]octan-3-yl)(methyl)amino)pyridazin-3-yl)-7-methoxynaphthalen-2-ol], the IC50 was 101 to 250 nM.
The same measure, in the same setting: under `CN(c1ccc(-c2cc3ccc(OCF)cc3cc2O)nn1)[C@@H]1C[C@H]2CC[C@@H](C1)N2` [compound 165, 3-(6-(((1R,3s,5S)-8-azabicyclo[3.2.1]octan-3-yl)(methyl)amino)pyridazin-3-yl)-7-(fluoromethoxy)naphthalen-2-ol] stands 10 to 100 nM; under `CN(c1ccc(-c2cc3ccc(OC(F)F)cc3cc2O)nn1)[C@@H]1C[C@H]2CC[C@@H](C1)N2` [compound 166, 3-(6-(((1R,3s,5S)-8-azabicyclo[3.2.1]octan-3-yl)(methyl)amino)pyridazin-3-yl)-7-(difluoromethoxy)naphthalen-2-ol], 501 to 1000 nM.
The same measure, in the same setting: next, `[2H]C([2H])([2H])n1cc(-c2ccc(-c3ccc(N(C)[C@H]4C[C@]5(C)CC[C@](C)(C4)N5)nn3)c(O)c2)cn1` [compound 171, 2-(6-(((1R,3s,5S)-1,5-dimethyl-8-azabicyclo[3.2.1]octan-3-yl)(methyl)amino)pyridazin-3-yl)-5-(1-(methyl-d3)-1H-pyrazol-4-yl)phenol]: 10 to 100 nM; `[2H]C([2H])([2H])Oc1cc(-c2ccc(-c3ccc(N(C)[C@H]4C[C@]5(C)CC[C@](C)(C4)N5)nn3)c(O)c2)ccn1` [compound 172, 2-(6-(((1R,3s,5S)-1,5-dimethyl-8-azabicyclo[3.2.1]octan-3-yl)(methyl)amino)pyridazin-3-yl)-5-(2-(methoxy-d3)pyridin-4-yl)phenol]: below 10 nM; `COc1cc(-c2ccc(-c3ccc(N(C)[C@H]4C[C@]5(C)CC[C@](C)(C4)N5)nn3)c(O)c2)ccn1` [compound 173, 2-(6-(((1R,3s,5S)-1,5-dimethyl-8-azabicyclo[3.2.1]octan-3-yl)(methyl)amino)pyridazin-3-yl)-5-(2-methoxypyridin-4-yl)phenol]: below 10 nM.
Same read-out and setting: under `CN(c1ccc(-c2ccc(-c3cnn(CF)c3)cc2O)nn1)[C@H]1C[C@]2(C)CC[C@](C)(C1)N2` [compound 174, 2-(6-(((1R,3s,5S)-1,5-dimethyl-8-azabicyclo[3.2.1]octan-3-yl)(methyl)amino)pyridazin-3-yl)-5-(1-(fluoromethyl)-1H-pyrazol-4-yl)phenol] stands below 10 nM.

A further experiment has as its system FOXM1^A2 mRNA and FOXM1^BC mRNA. In words: Splicing assay (FOXM1), qPCR of isoform mRNAs. The format is cell-based. As to conditions: FoxM1 A mRNA increase (exon excluded); read-out: Splice EC50 (nM) FoxM1 A mRNA increase (exon excluded). The procedure: Various cells lines were treated with the SMSMs described herein. RNA was then isolated, cDNA synthesized, qPCR performed and the levels of various mRNA targets of the SMSMs were determined. In some instances, RNA was isolated, cDNA synthesized, qPCR performed and the levels of mRNA isoforms in the various cell samples were determined.
On the day of the experiment, a 96-well plate was seeded with the cell lines of interest. The cells were diluted with full growth media to a concentration of 2.0×10^5 cells/mL and 100 μL of cells were added to each well (20,000 cells per well). The cells were treated with a compound immediately after plating.
The compounds were then added to the cell plate using the HP compound dispenser. In the initial experiment, a top concentration of 10 μM and an 8 point 4-fold dilution scheme was used. The stock compounds were made at a concentration of 5 mM, and the DMSO concentration was set to 0.2%. DMSO was used to normalize all the compound-containing wells and the untreated cells.
The treated cells were incubated at 37° C. in a 5% CO2 incubator for the desired amount of time. Plates were placed in a plastic bag with a wet paper towel to prevent evaporation.
RNA was isolated using the Cells to CT kit (ThermoFisher, AM1728). The cells were washed once with 100 μL cold PBS. 50 μL of lysis buffer was added to each well/tube (49.5 μL lysis buffer+0.5 μL DNase I per well/tube). The lysis reaction was mixed and incubated at room temperature for 5 minutes. 5 μL of stop solution was added directly into each cell lysis reaction and mixed by pipetting up and down 5 times. The plates/tubes were incubated at room temperature for 2 minutes then placed on ice if the cDNA synthesis was to be performed immediately. Otherwise, the plates/tubes were stored at −80° C. cDNA synthesis reactions were then performed. Reverse Transcription (RT) Master mix was prepared according to the table below.
40 μL RT master mix was added to PCR tubes or plate wells. 10 μL of RNA was added to each tube/well. The RT thermal cycler program was then run and tubes or plate wells were incubated at 37° C. for 1 hour, then at 95° C. for 5 minutes to deactivate the enzyme.
The qPCR was performed using a QuantStudio 6 instrument (ThermoFisher) and the following cycling conditions and according to the tables below. All samples and standards were analyzed in triplicate. Cycle 1: 2 minutes at 50° C. Cycle 2: 10 minutes at 95° C. Cycle 3 (repeat 40 times): 15 seconds at 95° C., 1 minute at 60° C.
The determined isoform 2and isoform 1quantities were then be used to determine the isoform 2: […] at the various compound concentrations. The PPIA quantities were used in the normalization to account of cell proliferation effects of the compounds.
The dilution necessary to make the top standard is calculated. A top concentration 200,000,000 copies/μL of the stock plasmid was prepared in TE buffer. A series of 10-fold dilutions, also in TE, were then made. A total of 5 μL of each standard was used in a qPCR well to generate samples containing 109 copies, […], 10^7copies, 10^6 copies, 10^5 copies, 10^4 copies, 10^3 copies, 10^2 copies, 10^1copies, and 0 copies.
An assay to measure the FOXM1^A2 mRNA and FOXM1^BC mRNA, or MADD^WT (isoform 4) mRNA and MADD^Ex16 (isoform 3) mRNA, or MAPTau^4R mRNA and MAPTau^3R mRNA simultaneously in cell wells was performed. The RNA values were measured relative to DMSO control and also included a housekeeping gene, PPIA to ensure data was consistent. The mRNA values were measured after 24 hours of incubation with the SMSM compounds.
For the molecule “2-(6-(((1R,3s,5S)-1,5-dimethyl-8-azabicyclo[3.2.1]octan-3-yl)(methyl)amino)pyridazin-3-yl)-5-(4-methyl-1H-imidazol-1-yl)phenol [compound 177]”, the EC50 is below 10 nM.

The same experiment, now with this note: FoxM1 BC mRNA decrease (exon included); read-out: Splice IC50 (nM) FoxM1 BC mRNA decrease (exon included).
Take “2-(6-(((1R,3s,5S)-1,5-dimethyl-8-azabicyclo[3.2.1]octan-3-yl)(methyl)amino)pyridazin-3-yl)-5-(4-methyl-1H-imidazol-1-yl)phenol [compound 177]”: the IC50 was below 10 nM.
